Laboratory results as given in the supplement of paper PMC11451515.

Test system: SEM cells
Test: cell viability relative to DMSO control; higher = less cytotoxic
Conditions: 48 h
Summary of the method: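 Cells were incubated for 48 h at 37°C before CellTiter-Glo One luminescence was read. The cells were NOMO1 or SEM (500 cells/well) or P12-Ichikawa (1000 cells/well) leukemia cells, adapted for at least four passages in each medium and seeded in 1536-well plates (5 μl). Dosing used library compounds in DMSO applied by pin over 11 threefold points, 47 μM to 0.79 nM. Viability is the per-plate percentage of DMSO wells, with cell-free wells as background.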

[1] = HPLM + 10% dialyzed FBS, 0.000781 µM
[2] = HPLM + 10% dialyzed FBS, 0.00234 µM
[3] = HPLM + 10% dialyzed FBS, 0.00702 µM
[4] = HPLM + 10% dialyzed FBS, 0.0211 µM
[5] = HPLM + 10% dialyzed FBS, 0.0632 µM
[6] = HPLM + 10% dialyzed FBS, 0.19 µM
[7] = HPLM + 10% dialyzed FBS, 0.569 µM
[8] = HPLM + 10% dialyzed FBS, 1.71 µM
[9] = HPLM + 10% dialyzed FBS, 5.12 µM
[10] = HPLM + 10% dialyzed FBS, 15.4 µM
[11] = HPLM + 10% dialyzed FBS, 46.1 µM
[12] = RPMI 5 mM glucose + 10% FBS, 0.000781 µM
[13] = RPMI 5 mM glucose + 10% FBS, 0.00234 µM
[14] = RPMI 5 mM glucose + 10% FBS, 0.00702 µM
[15] = RPMI 5 mM glucose + 10% FBS, 0.0211 µM
[16] = RPMI 5 mM glucose + 10% FBS, 0.0632 µM
[17] = RPMI 5 mM glucose + 10% FBS, 0.19 µM
[18] = RPMI 5 mM glucose + 10% FBS, 0.569 µM
[19] = RPMI 5 mM glucose + 10% FBS, 1.71 µM
[20] = RPMI 5 mM glucose + 10% FBS, 5.12 µM
[21] = RPMI 5 mM glucose + 10% FBS, 15.4 µM
[22] = RPMI 5 mM glucose + 10% FBS, 46.1 µM
[23] = RPMI 5 mM glucose + 10% dialyzed FBS, 0.000781 µM
[24] = RPMI 5 mM glucose + 10% dialyzed FBS, 0.00234 µM
[25] = RPMI 5 mM glucose + 10% dialyzed FBS, 0.00702 µM
[26] = RPMI 5 mM glucose + 10% dialyzed FBS, 0.0211 µM
[27] = RPMI 5 mM glucose + 10% dialyzed FBS, 0.0632 µM
[28] = RPMI 5 mM glucose + 10% dialyzed FBS, 0.19 µM
[29] = RPMI 5 mM glucose + 10% dialyzed FBS, 0.569 µM
[30] = RPMI 5 mM glucose + 10% dialyzed FBS, 1.71 µM
[31] = RPMI 5 mM glucose + 10% dialyzed FBS, 5.12 µM
[32] = RPMI 5 mM glucose + 10% dialyzed FBS, 15.4 µM
[33] = RPMI 5 mM glucose + 10% dialyzed FBS, 46.1 µM

Structure (SMILES)	cell viability [1] [%]	cell viability [2] [%]	cell viability [3] [%]	cell viability [4] [%]	cell viability [5] [%]	cell viability [6] [%]	cell viability [7] [%]	cell viability [8] [%]	cell viability [9] [%]	cell viability [10] [%]	cell viability [11] [%]	cell viability [12] [%]	cell viability [13] [%]	cell viability [14] [%]	cell viability [15] [%]	cell viability [16] [%]	cell viability [17] [%]	cell viability [18] [%]	cell viability [19] [%]	cell viability [20] [%]	cell viability [21] [%]	cell viability [22] [%]	cell viability [23] [%]	cell viability [24] [%]	cell viability [25] [%]	cell viability [26] [%]	cell viability [27] [%]	cell viability [28] [%]	cell viability [29] [%]	cell viability [30] [%]	cell viability [31] [%]	cell viability [32] [%]	cell viability [33] [%]
COC1=CC=C2C(=CC=NC2=C1)OC3=CC=C(NC(=O)\C4=C(C)\N(CC(C)(C)O)N(C4=O)C5=CC=CC=C5)C=C3F	108	99.9	129	108	114	112	112	98.1	60.7	45.7	39.1	113	108	122	115	117	118	104	86.1	51.1	30.7	21.6	105	110	124	108	136	130	93.8	69.7	44.4	35.8	24.2
CCCn1c(=O)c2[nH]c(-c3cnn(Cc4cccc(C(F)(F)F)c4)c3)nc2n(CC)c1=O	100	109	111	120	109	124	124	113	107	109	95.4	95.8	89.9	106	109	103	108	99.8	94.4	116	109	90.5	109	109	111	111	116	124	109	104	112	117	98.4
Cl.Cl.Fc1ccc(C(OCCN2CCN(CCCc3ccccc3)CC2)c2ccc(F)cc2)cc1	97.4	96	99.3	104	104	93.2	97.1	113	111	99.7	32.4	111	112	111	120	109	114	103	107	102	115	22.3	84.9	99.5	105	118	120	124	130	122	120	110	27.9
NC/1=N/C(=O)N(/C=C1)[C@H]2CC[C@@H](CO)O2	78.3	95	93.8	103	101	104	109	121	103	23	72.2	71.7	88.8	103	92	88.3	101	93.4	96.1	110	17	80.1	68.7	87.4	94.3	94.3	102	88.1	88.6	98.4	78	17.2	53.4
O=C(c1ccc(F)cc1)C1CCN(CCn2c(=O)[nH]c3ccccc3c2=O)CC1	97.6	103	112	101	101	98.5	119	109	104	95.7	93	118	121	126	126	106	120	120	119	119	125	116	–	–	–	–	–	–	–	–	–	–	–
CCOC(=O)c1ccc(C#Cc2ccc3c(c2)C(C)(C)CCS3)nc1	105	105	109	116	111	75.4	114	118	108	114	102	98	121	122	126	118	75.6	121	122	116	108	113	89.2	100	101	98.1	106	66.4	99.5	94.8	90	89.3	93.5
CN(C)C(=O)COC(=O)Cc1ccc(OC(=O)c2ccc(NC(=N)N)cc2)cc1	107	113	122	112	125	126	119	119	112	118	61.2	102	110	126	117	130	126	139	130	114	107	61.7	–	–	–	–	–	–	–	–	–	–	–
CCCCc1oc2ccc(NS(C)(=O)=O)cc2c1C(=O)c1ccc(OCCCN(CCCC)CCCC)cc1	62.8	66	80.9	87.6	92.6	86.6	101	98.7	70.2	78.6	8.35	88.9	87.5	98.2	109	95.6	92.6	101	108	96.3	94.1	14.9	94.8	94.1	98.4	108	107	99.3	100	109	97	94.7	6.45
COc1ccc(CCC(=O)Nc2nc3ccc(Cl)cc3s2)cc1OC	104	114	121	111	120	104	116	112	132	116	111	112	92.8	108	102	123	127	124	126	115	104	95	120	102	105	113	120	107	101	121	102	117	105
C[Se]CCC(N)C(=O)O (stereo not drawn)	50.5	87.2	86.1	94.7	75.6	71.3	82.8	71.5	86.4	78.1	72	65.1	83.9	107	95.4	89.8	95	85.9	88.5	103	100	98.1	51.5	100	96.6	94.4	73.1	101	90.4	84.1	94.2	100	88.7
CC(=O)SCC(Cc1ccccc1)C(=O)NCC(=O)OCc1ccccc1 (stereo not drawn)	86.1	79.1	93.3	96.4	99	103	105	97.4	108	108	102	84.9	77.2	97.1	94	96	92.5	98.3	99.8	95.7	91.2	90.1	77.4	77.6	82.1	104	109	104	115	114	108	116	96.9
CCN(CC)CCOC1=CC=C(NC2=NC=C3\C=C(/C(=O)N(C)C3=N2)C4=C(Cl)C=CC=C4Cl)C=C1	94.9	101	105	74.5	67.9	58.4	56.8	56	10.9	6.61	4.15	78.3	67.6	74.7	52.1	48.6	44.8	38.2	45.8	11.7	7.2	2.88	92.5	102	106	68.3	76.1	69.1	61.1	59.8	13.5	8.59	3.75
COc1cc(N2CCC(N3CCN(C)CC3)CC2)ccc1Nc1ncnc(Nc2ccccc2[S+](=O)([O-])C(C)C)n1	69.6	81.5	85.8	99.3	67.4	106	104	88.4	67.6	25.2	11.9	71.3	72.6	90.7	93.8	59.6	123	109	81	59.4	22.5	7.39	87.4	90.2	82.2	85.7	69.8	132	127	109	72.7	26.4	12.9
c1ccc2c(-c3cnn4cc(-c5ccc(N6CCNCC6)cc5)cnc34)ccnc2c1	75.6	78.2	121	125	139	130	122	100	2.9	1.26	2.65	84	71.6	140	138	153	122	121	97.1	61	7.66	3.32	69	72.2	118	147	151	142	114	89.2	66.7	45.9	3.66
CN[C@@H](C)C(=O)N[C@H]1CCCC[C@H]2CC[C@@H](C(=O)N[C@@H](c3ccccc3)c3cn(CCCCc4ccc(CCCCn5cc([C@@H](NC(=O)[C@@H]6CC[C@@H]7CCCC[C@H](NC(=O)[C@H](C)NC)C(=O)N76)c6ccccc6)nn5)cc4)nn3)N2C1=O	73.5	96.1	90.5	100	90.5	89.2	88.1	91	92.2	103	69.2	90.3	97.9	94.9	95.6	83.4	89.5	82.2	87.2	94.8	85	35.3	95.8	90.5	82	95.2	99.4	86.8	82.3	95.3	82.4	84.4	54.4
